Consider six compounds from patent US7754709B2 (Solvay Pharmaceuticals BV, priority 2003, dated 2010).

The term inhibition denotes the change of the read-out against control, counted positive when it falls.

Common to all, as to type: cell-based
Assay [1] deals with T1, 17β-hydroxysteroid dehydrogenase type 2 (Homo sapiens, UniProt P37059).
T1 construct: expressed in transfected cells; host or cells: MCF-7
T1 sequence (P37059 1-387): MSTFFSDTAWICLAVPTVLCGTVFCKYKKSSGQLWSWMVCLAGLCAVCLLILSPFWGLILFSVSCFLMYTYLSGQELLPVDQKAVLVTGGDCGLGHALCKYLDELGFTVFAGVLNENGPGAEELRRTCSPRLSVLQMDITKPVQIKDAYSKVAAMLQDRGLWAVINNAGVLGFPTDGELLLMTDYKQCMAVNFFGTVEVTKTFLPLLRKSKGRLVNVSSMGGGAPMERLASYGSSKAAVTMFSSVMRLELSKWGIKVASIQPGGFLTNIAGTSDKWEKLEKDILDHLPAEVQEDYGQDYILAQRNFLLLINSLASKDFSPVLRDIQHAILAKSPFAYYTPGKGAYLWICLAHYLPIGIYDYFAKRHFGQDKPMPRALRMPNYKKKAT
The assay can be described thus: Inhibition of 17β-HSD type 2 in MCF-7 cells stably expressing the isoenzyme (HPLC, tritium labeled estradiol). The note with it: 2 nM estradiol, read-out: % Inhibition of the 17β-HSD enzyme type 2 (HSD2); for inhibition at 1 µM: MCF7, 1 μM compound; for inhibition at 10 µM: MCF7, 10 μM compound. The gist of the method: (§1)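 MCF-7 lines each stably expressing one isoenzyme incubated in growth medium with compound (two concentrations) and 2 nM tritiated substrate: estrone (type 1), estradiol (type 2), androstenedione (type 3). TCA-stopped; conversion by HPLC with flow scintillation, inhibition relative to compound-free control.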

Assay [2] has as its target T2, 17β-hydroxysteroid dehydrogenase type 1 (Homo sapiens, UniProt P14061).
T2 construct: expressed in transfected cells; host or cells: MCF-7
T2 sequence (P14061 1-328): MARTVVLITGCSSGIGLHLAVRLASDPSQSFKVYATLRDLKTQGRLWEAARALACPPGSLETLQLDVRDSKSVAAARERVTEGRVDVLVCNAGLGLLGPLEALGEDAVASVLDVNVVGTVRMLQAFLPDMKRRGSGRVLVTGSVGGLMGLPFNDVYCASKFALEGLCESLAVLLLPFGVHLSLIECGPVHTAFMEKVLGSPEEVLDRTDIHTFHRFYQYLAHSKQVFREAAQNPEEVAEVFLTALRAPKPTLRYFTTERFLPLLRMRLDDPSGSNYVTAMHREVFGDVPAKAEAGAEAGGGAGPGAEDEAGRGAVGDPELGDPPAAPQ
The assay can be described thus: Inhibition of 17β-HSD type 1 in MCF-7 cells stably expressing the isoenzyme (HPLC, tritium labeled estrone). The note with it: 2 nM estrone, read-out: % Inhibition of the 17β-HSD enzyme type 1 (HSD1); for inhibition at 1 µM: MCF7, 1 μM compound; for inhibition at 10 µM: MCF7, 10 μM compound. In short, it runs like this:
as §1

In assay [3] the target is T3, 17β-hydroxysteroid dehydrogenase type 3 (Homo sapiens, UniProt P37058).
T3 construct: expressed in transfected cells; host or cells: MCF-7
T3 sequence (P37058 1-310): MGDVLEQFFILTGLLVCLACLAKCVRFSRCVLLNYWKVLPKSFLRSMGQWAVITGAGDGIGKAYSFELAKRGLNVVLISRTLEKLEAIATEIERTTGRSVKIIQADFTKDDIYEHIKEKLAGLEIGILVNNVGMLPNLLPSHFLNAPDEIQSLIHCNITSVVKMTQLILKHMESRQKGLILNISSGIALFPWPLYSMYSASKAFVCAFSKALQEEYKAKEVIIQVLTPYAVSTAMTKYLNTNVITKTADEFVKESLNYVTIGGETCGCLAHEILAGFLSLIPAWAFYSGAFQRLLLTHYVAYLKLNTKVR
Briefly: Inhibition of 17β-HSD type 3 in MCF-7 cells stably expressing the isoenzyme (HPLC, tritium labeled androstenedione). The note with it: 2 nM androstenedione, read-out: % Inhibition of the 17β-HSD enzyme type 3 (HSD3); for inhibition at 1 µM: MCF7, 1 μM compound; for inhibition at 10 µM: MCF7, 10 μM compound. The gist of the method:
as §1

In the case of `CC1CCc2c(sc3nc4n(c(=O)c23)CCCCC4)C1` (stereo not drawn) [Compound 27, 3-Methyl-2,3,4,7,8,9, 10,11-octahydro-[1]benzothieno[2′,3′: 4,5]pyrimido-[1,2-a]azepin-13(1H)-one], the figures for the inhibition at 1 µM in assay [1], in assay [2] and in assay [3] were 5.3%, 11.4% and 22.9%, respectively. Besides, the inhibition at 10 µM in assay [1] was found to be 3.2%; in assay [2], 25.6%; in assay [3] it was 24.9%.
`CC1CCc2c(sc3nc4n(c(=O)c23)CCCCC4)C1=O` (stereo not drawn) [Compound 28, 2,3,8,9,10,11-Hexahydro-3-methyl-[1]benzothieno[2′,3′: 4,5]pyrimido[1,2-a]azepin-4,13(1H,7H)-dione]: the inhibition at 1 µM in assay [1] is 18.2%; in assay [2], 14.3%; in assay [3], 7.8%. The values for the inhibition at 10 µM in assay [1], in assay [2] and in assay [3] were 18.7%, 15.3% and 9.5%, respectively.
Turning to `CC(C)(C)C1CCc2c(sc3nc4n(c(=O)c23)CCCCC4)C1` (stereo not drawn) [Compound 29, 3-t-Butyl-2,3,4,7,8,9,10,11-octahydro-[1]benzothieno[2′,3′: 4,5]pyrimido-[1,2-a]azepin-13(1H)-one], the inhibition at 1 µM was 13.1% in assay [1], -1% in assay [2] and 14.9% in assay [3]. The inhibition at 10 µM in assay [1] worked out at 10.1%; in assay [2], 1.3%; in assay [3], 25.8%.
On to `O=CC1=C([S+]([O-])c2ccccc2)c2sc3nc4n(c(=O)c3c2CC1)CCCCC4` (stereo not drawn) [Compound 30, 1,2,7,8,9,10,11,13-Octahydro-13-oxo-4-(phenylsulfinyl)-[1]benzothieno[2′,3′: 4,5]-pyrimido-[1,2-a]azepine-3-carbaldehyde], for which the inhibition at 1 µM in assay [1] was determined as 12.8%; in assay [2], 23.1%; in assay [3], 11.1%. Besides, the inhibition at 10 µM in assay [1] was determined as 24.8%; in assay [2], 49%; in assay [3] it was 31.2%.
Consider `O=C(O)C1=C(Cl)c2sc3nc4n(c(=O)c3c2CC1)CCCCC4` [Compound 31, 4-Chloro-1,2,7,8,9, 10,11,13-octahydro-13-oxo-[1]benzothieno[2′,3′: 4,5]pyrimido[1,2-a]azepine-3-carboxylic acid], for which the inhibition at 1 µM was -0.2% in assay [1], 2.1% in assay [2] and -6.4% in assay [3]. The inhibition at 10 µM in assay [1] is 9.3%; in assay [2], 6.8%; in assay [3], -3.9%.
Turning to `O=c1c2c3c(sc2nc2n1CCC(CO)CC2)CCCC3` (stereo not drawn) [Compound 35, 9-(Hydroxymethyl)-2,3,4,7,8,9,10,11-octahydro-[1]benzothieno[2′,3′: 4,5]pyrimido[1,2-a]azepin-13(1H)-one], the inhibition at 1 µM in assay [1] turned out to be 15.8%; in assay [2], 4.8%; in assay [3] it was 16.2%. Further, the figures for the inhibition at 10 µM in assay [1], in assay [2] and in assay [3] were 27.7%, 22.4% and 23.4%, respectively.
